Source: ChEMBL document CHEMBL1131225, “Macrocyclic amino carboxylates as selective MMP-8 inhibitors” (J Med Chem, 1998)
pKi: −log10 of the molar value.

How the values were obtained:
Stromelysin-1 = Stromelysin-1 (Homo sapiens, UniProt P08254); assay: Inhibition of Matrix metalloprotease-3
Neutrophil collagenase = Neutrophil collagenase (Homo sapiens, UniProt P22894); assay: Inhibition of Matrix metalloprotease-8
[1] = molecular target: 72 kDa type IV collagenase (Homo sapiens, UniProt P08253); assay: Inhibition of Matrix metalloprotease-2
Interstitial collagenase = molecular target: T1, Interstitial collagenase (Homo sapiens, UniProt P03956); assay: Inhibition of Matrix metalloprotease-1
T1 sequence (P03956 whole entry): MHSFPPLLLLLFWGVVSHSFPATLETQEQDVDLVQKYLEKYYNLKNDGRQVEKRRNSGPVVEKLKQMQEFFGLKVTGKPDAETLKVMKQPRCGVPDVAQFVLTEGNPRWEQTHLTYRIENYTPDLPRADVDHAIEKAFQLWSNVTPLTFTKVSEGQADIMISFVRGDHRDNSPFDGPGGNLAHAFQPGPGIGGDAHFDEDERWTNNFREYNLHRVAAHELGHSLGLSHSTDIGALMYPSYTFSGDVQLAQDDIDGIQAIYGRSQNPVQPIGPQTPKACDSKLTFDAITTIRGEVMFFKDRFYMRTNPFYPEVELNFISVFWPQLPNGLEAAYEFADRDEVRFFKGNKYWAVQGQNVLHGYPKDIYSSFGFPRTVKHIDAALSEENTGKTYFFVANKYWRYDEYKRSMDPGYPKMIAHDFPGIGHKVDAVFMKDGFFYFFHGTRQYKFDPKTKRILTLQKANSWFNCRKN

[2] = molecular target: Matrix metalloproteinase-9 (Homo sapiens, UniProt P14780); assay: Inhibition of Matrix metalloprotease-9
Sequence of Matrix metalloproteinase-9 (P14780 whole entry): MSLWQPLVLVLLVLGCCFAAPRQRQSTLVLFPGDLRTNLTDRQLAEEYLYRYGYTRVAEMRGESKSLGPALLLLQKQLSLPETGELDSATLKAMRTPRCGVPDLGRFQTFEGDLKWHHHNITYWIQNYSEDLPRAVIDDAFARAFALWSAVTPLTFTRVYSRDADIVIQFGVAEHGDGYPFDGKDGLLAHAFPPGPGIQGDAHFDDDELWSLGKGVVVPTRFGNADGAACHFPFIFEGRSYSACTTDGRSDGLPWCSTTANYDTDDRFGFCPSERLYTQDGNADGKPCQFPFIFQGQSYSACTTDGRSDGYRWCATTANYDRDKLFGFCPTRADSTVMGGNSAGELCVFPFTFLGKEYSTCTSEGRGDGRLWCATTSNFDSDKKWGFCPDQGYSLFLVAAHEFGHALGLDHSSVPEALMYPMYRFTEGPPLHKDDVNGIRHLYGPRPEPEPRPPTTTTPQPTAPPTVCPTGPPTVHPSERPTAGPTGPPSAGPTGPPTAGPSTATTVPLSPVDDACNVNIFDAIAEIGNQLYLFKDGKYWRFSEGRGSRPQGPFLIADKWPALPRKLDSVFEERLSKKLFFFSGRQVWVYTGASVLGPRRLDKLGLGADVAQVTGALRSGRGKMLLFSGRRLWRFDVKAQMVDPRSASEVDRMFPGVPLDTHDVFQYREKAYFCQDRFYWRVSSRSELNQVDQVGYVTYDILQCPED

Sequence of Stromelysin-1 (P08254 whole entry): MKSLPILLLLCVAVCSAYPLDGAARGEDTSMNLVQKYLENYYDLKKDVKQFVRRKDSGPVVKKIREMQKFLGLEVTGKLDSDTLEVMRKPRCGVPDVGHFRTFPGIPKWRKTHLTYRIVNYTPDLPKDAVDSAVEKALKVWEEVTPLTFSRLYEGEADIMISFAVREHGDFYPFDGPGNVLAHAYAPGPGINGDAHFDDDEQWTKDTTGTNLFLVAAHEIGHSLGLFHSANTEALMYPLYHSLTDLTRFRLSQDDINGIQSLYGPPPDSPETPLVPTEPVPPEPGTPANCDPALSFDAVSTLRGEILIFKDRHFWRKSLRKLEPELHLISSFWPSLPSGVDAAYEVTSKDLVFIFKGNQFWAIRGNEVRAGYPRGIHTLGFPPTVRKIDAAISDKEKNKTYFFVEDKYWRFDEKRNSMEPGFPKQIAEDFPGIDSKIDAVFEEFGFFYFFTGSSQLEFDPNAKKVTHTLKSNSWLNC
Sequence of 72 kDa type IV collagenase (P08253 whole entry): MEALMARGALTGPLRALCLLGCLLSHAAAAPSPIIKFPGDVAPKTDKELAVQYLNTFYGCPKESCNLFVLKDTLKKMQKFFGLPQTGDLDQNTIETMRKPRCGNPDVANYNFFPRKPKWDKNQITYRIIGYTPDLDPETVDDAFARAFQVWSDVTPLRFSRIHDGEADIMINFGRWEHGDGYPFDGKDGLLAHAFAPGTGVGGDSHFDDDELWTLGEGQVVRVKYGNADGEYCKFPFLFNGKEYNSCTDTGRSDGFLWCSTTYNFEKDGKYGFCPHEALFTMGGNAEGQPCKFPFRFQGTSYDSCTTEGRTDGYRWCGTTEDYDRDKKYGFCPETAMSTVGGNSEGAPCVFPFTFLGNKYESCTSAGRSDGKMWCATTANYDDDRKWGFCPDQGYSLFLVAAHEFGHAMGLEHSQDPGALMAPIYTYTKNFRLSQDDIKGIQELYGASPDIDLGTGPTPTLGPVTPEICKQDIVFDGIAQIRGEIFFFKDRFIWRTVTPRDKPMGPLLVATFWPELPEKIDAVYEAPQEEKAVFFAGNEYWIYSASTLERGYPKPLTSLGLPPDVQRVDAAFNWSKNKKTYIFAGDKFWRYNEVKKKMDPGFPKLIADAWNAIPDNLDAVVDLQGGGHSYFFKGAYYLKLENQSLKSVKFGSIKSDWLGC
Sequence of Neutrophil collagenase (P22894 whole entry): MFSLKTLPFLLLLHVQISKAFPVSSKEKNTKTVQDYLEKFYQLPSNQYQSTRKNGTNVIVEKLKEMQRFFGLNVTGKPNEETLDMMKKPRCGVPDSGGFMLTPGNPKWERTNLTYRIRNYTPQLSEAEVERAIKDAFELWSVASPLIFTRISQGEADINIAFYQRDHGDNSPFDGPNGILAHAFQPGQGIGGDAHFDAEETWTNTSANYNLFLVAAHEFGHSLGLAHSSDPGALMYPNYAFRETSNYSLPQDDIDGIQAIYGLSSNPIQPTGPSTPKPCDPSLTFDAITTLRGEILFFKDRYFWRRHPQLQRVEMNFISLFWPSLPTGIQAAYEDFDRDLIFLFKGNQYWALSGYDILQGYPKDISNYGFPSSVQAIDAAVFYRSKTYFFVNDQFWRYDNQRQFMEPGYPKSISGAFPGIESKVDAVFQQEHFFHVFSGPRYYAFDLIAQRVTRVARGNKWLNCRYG

Row | Structure (SMILES) | pKi (Stromelysin-1) | pKi (Neutrophil collagenase) | pKi [1] | pKi (Interstitial collagenase) | pKi [2]
1 | CNC(=O)[C@@H]1CCC(=O)OCCNC(=O)CC[C@H](C(=O)O)N[C@@H](CCc2ccccc2)C(=O)N1 | 5.54 | 8.00 | 6.62 | 5.08 | 5.24
2 | CNC(=O)[C@@H]1CCCCNC(=O)C[C@H](C(=O)O)N[C@@H](CCc2ccccc2)C(=O)N1 | 4.46 | 6.27 | 5.62 | 6.05 | 5.01
3 | CNC(=O)[C@@H]1CCCCNC(=O)CC[C@H](C(=O)O)N[C@@H](CCc2ccc(-c3ccccc3)cc2)C(=O)N1 | 5.62 | 8.05 | 6.60 | 5.84 | 6.54
4 | CNC(=O)CC[C@@H](N[C@@H](CCc1ccccc1)C(=O)N[C@@H](CCCCNC(C)=O)C(=O)NC)C(=O)O | 4.85 | 6.53 | 5.81 |  | 6.39
5 | CNC(=O)[C@@H]1CCCCNC(=O)CC[C@H](C(=O)O)N[C@@H](CCc2ccccc2)C(=O)N1 | 4.87 | 7.77 | 5.09 |  | 5.18
